{"source": "patent US20210315886A1", "about": "“IMIDAZOTETRAZINE COMPOUNDS” (The Board of Trustees of the University of Illinois, priority 2018, published 2021)", "key": {"[1]": {"system": "panel of human GBM cell lines", "experiment": "Anticancer activity against panel of human GBM cell lines", "assay_type": "cell-based", "conditions": "for activity relative to TMZ in MGMT-deficient cell lines: MGMT-deficient U87 and D54 cell lines; for anticancer activity in cell culture: across all cell lines / in culture; for IC50: Homo sapiens", "procedure": "Anticancer activity of C8 substituted imidazotetrazines. With a suite of imidazotetrazines in hand, each compound was evaluated against a panel of human GBM cell lines (Table 1a, Table 1b)."}, "[2]": {"system": "GBM Br23c oncospheres intracranially implanted", "experiment": "Intracranial mouse model of GBM (Br23c oncospheres)", "assay_type": "in vivo", "conditions": "for increase of median survival over TMZ: equimolar to 15 mg/kg TMZ, once-per-day, 5×/week for 7 weeks", "source_text": "FIG. 5. Evaluation of imidazotetrazines in intracranial mouse models of GBM. GBM Br23c oncospheres were intracranially implanted into female athymic nude mice. Treatment was started 5 days post implantation. […] Compounds were formulated in 10% PEG in PBS immediately prior to each treatment. Number of mice per treatment cohort ≥5. Survival curves were compared using log-rank test.\nin vivo Efficacy Models. Human GBM Br23c stem-like neurosphere cells were intracranially implanted in female athymic nude mice (150,000 cells/mouse). […] Mice were observed daily for any signs of deterioration, neurotoxicity, or movement disorders. They were inspected for signs of pain and distress, as in accordance with the Johns Hopkins Animal Care and Use Guidelines."}, "[3]": {"system": "T98G cells", "experiment": "Cytotoxicity in T98G cells with or without O6BG pre-treatment", "assay_type": "cell-based, human", "procedure": "FIG. 4. Imidazotetrazines were added to T98G cells with or without 3 h pre-treatment of O6BG (100 μM). IC50 values after 7-day incubation and fold changes between (+/−) O6BG treatments are reported. […] Error is SEM, n≥3. Statistical significance was determined by using a two-sample Student's t-test (two-tailed test, assuming equal variance).\nAfter 8 hours of incubation with compound, the genomic DNA was isolated, quantified, and hydrolyzed to its constituent deoxyribonucleosides, which were quantitated via LC-MS/MS analysis. […] O6BG is a pseudosubstrate for MGMT that quenches cellular stores of the enzyme, leading to the persistence of O^6-methylguanine DNA adducts."}, "[4]": {"experiment": "Mouse liver microsome stability assay", "assay_type": "in vitro ADME", "conditions": "for stability to mouse liver microsomes: 2 hours", "procedure": "Mouse Liver Microsome Stability Assay. A mixture of PBS (pH 7.4), NADPH regenerating system solution A (Corning Life Sciences), and NADPH regenerating system solution B (Corning Life Sciences) was incubated at 37° C. in a shaking incubator for 5 min. Next, compound was added in DMSO (final concentration 50 μM, 0.5% DMSO) before ice-cold mouse liver microsomes (Thermo Fisher, male CD-1 mice, pooled) were added (final protein concentration of 1 mg/mL). An aliquot was immediately removed, quenched with an equal volume of 100 μM internal standard and 0.5% hydrochloric acid in ice-cold acetonitrile, and centrifuged at 13,000 rcf for 3 min. The supernatant was diluted 1:5 in ddH2O and analyzed by LC-MS. The reactions were incubated at 37° C. in a shaking incubator for 2 h. A second aliquot was removed, quenched and diluted as before and analyzed by LC-MS. The ratio of the areas of analyte: internal standard at 2 hours was compared to the ratio at t0 to determine the percentage of compound remaining. Analysis was performed on an Agilent 6230 LC/MS TOF system with a 1.8 μm, 2.1×50 mm Agilent ZORBAX Eclipse Plus C18 column."}, "[5]": {"experiment": "Assessment of hematological toxicity", "assay_type": "in vivo", "conditions": "mice, single IV dose 125 mg/kg, blood counts after 7 days", "procedure": "Assessment of hematological toxicity. […] Both lymphocyte (FIG. 3b) and neutrophil (FIG. 8a) concentrations were decreased in TMZ-treated mice. […] Total WBC, lymphocyte, and neutrophil counts for mice treated with these compounds were equivalent to those of control mice.\nAssessment of Hematological Toxicity. Male CD-1 IGS mice (n=4 mice/group) were administered a single dose of 125 mg/kg compound intravenously. Imidazotetrazines were formulated with SBEβCD in sterile water immediately prior to injection. Seven days post-treatment, mice were humanely sacrificed and whole blood was collected for assessment of total white blood cells, lymphocytes, neutrophils, platelets, and red blood cells."}, "[6]": {"system": "U87 cells", "experiment": "Cell viability, Alamar Blue, 7 days, U87", "assay_type": "cell-based", "conditions": "Homo sapiens, U-87 MG, 168 h, Table 1a, MGMT −", "source_text": "Cell Culture and Reagents."}, "[7]": {"experiment": "Hydrolytic stability in buffered saline (HPLC assay)", "assay_type": "physicochemical", "conditions": "aqueous solution, PBS at pH 7.4", "source_text": "Hydrolytic stability of C8 substituted imidazotetrazines."}, "[8]": {"conditions": "cited from earlier work"}}, "note": "Entries after “also recorded” stand apart in the source; their conditions may differ. Read-outs that look alike come from different tables or passages of the source."}
{"smiles": "CCSC(=O)c1ncn2c(=O)n(C)nnc12", "note": "[Compound 10, S-ethyl 3-methyl-4-oxo-3,4-dihydroimidazo[5,1-d][1,2,3,5]tetrazine-8-carbothioate]", "values": [{"measurement": "activity relative to TMZ in MGMT-deficient cell lines", "setting": "[1]", "result": "activity comparable to TMZ"}]}
{"smiles": "CN(C)C(=O)c1ncn2c(=O)n(C)nnc12", "note": "[Compound 5, N,N,3-trimethyl-4-oxo-3,4-dihydroimidazo[5,1-d][1,2,3,5]tetrazine-8-carboxamide]", "values": [{"measurement": "increase of median survival over TMZ", "setting": "[2]; oral", "result": 46, "unit": "%"}, {"measurement": "Fold Change between (+/−) O6BG IC50", "setting": "[3]", "result": 10}, {"measurement": "stability to mouse liver microsomes", "setting": "[4]", "result": "some susceptibility to the effects of the microsomes"}, {"measurement": "anticancer activity in cell culture", "setting": "[1]", "result": "retained activity in culture"}]}
{"smiles": "CC(=O)c1ncn2c(=O)n(C)nnc12", "note": "[Compound 17, 8-acetyl-3-methylimidazo[5,1-d][1,2,3,5]tetrazin-4(3H)-one]", "values": [{"measurement": "myelosuppression / WBC toxicity", "setting": "[5]; listed as K-TMZ, 125 mg/kg", "result": "did not produce myelosuppression; also recorded: significantly less in vivo toxicity to WBCs"}, {"measurement": "extension of median survival past TMZ-treated mice", "setting": "[2]; oral gavage, 14.9 mg/kg once-per-day for 5 total doses", "result": "more than 50 days"}, {"measurement": "IC50", "setting": "[6]", "result": "44 ± 6", "unit": "µM"}, {"measurement": "Fold Change between (+/−) O6BG IC50", "setting": "[3]", "result": 8}, {"measurement": "stability to mouse liver microsomes", "setting": "[4]", "result": "generally stable to oxidative metabolism"}, {"measurement": "activity relative to TMZ in MGMT-deficient cell lines", "setting": "[1]", "result": "effective against MGMT-deficient cell lines"}, {"measurement": "anticancer activity in cell culture", "setting": "[1]", "result": "retained activity in culture"}, {"measurement": "potency compared to TMZ", "setting": "[1]; in culture, despite shorter aqueous half-life", "result": "equipotent to TMZ"}]}
{"smiles": "CCCCN(CCCC)C(=O)c1ncn2c(=O)n(C)nnc12", "note": "[Compound 7, N,N-dibutyl-3-methyl-4-oxo-3,4-dihydroimidazo[5,1-d][1,2,3,5]tetrazine-8-carboxamide]", "values": [{"measurement": "Stability (2 h, Microsomes)", "setting": "[4]; 2 h, percentage remaining relative to t0", "result": "1 ± 1", "unit": "%"}, {"measurement": "stability to mouse liver microsomes", "setting": "[4]", "result": "markedly less stability in liver microsomes"}]}
{"smiles": "Cn1nnc2c(Cl)ncn2c1=O", "note": "[Compound 19, 8-chloro-3-methylimidazo[5,1-d][1,2,3,5]tetrazin-4(3H)-one]", "values": [{"measurement": "stability to mouse liver microsomes", "setting": "[4]", "result": "generally stable to oxidative metabolism"}, {"measurement": "activity relative to TMZ in MGMT-deficient cell lines", "setting": "[1]", "result": "as (or more) potent than TMZ"}, {"measurement": "anticancer activity in cell culture", "setting": "[1]", "result": "retained activity in culture"}]}
{"smiles": "Cn1nnc2c(-c3ccccc3)ncn2c1=O", "note": "[Compound 23, 3-methyl-8-phenylimidazo[5,1-d][1,2,3,5]tetrazin-4(3H)-one]", "values": [{"measurement": "half-life", "setting": "[7]", "result": "> 20", "unit": "h"}, {"measurement": "activity relative to TMZ in MGMT-deficient cell lines", "setting": "[1]", "result": "as (or more) potent than TMZ"}, {"measurement": "anticancer activity in cell culture", "setting": "[1]", "result": "most active across all cell lines"}]}
{"smiles": "Cc1cnc(-c2ncn3c(=O)n(C)nnc23)o1", "note": "[Compound 27, 3-methyl-8-(5-methyloxazol-2-yl)imidazo[5,1-d][1,2,3,5]tetrazin-4(3H)-one]", "values": [{"measurement": "Fold Change between (+/−) O6BG IC50", "setting": "[3]", "result": 20}, {"measurement": "activity relative to TMZ in MGMT-deficient cell lines", "setting": "[1]", "result": "as (or more) potent than TMZ"}, {"measurement": "anticancer activity in cell culture", "setting": "[1]", "result": "retained activity in culture"}]}
{"smiles": "CNC(=O)c1ncn2c(=O)n(C)nnc12", "note": "[Compound 4, N,3-dimethyl-4-oxo-3,4-dihydroimidazo[5,1-d][1,2,3,5]tetrazine-8-carboxamide]", "values": [{"measurement": "increase of median survival over TMZ", "setting": "[2]; oral", "result": 24, "unit": "%"}, {"measurement": "stability to mouse liver microsomes", "setting": "[4]", "result": "some susceptibility to the effects of the microsomes"}, {"measurement": "anticancer activity in cell culture", "setting": "[1]", "result": "retained activity in culture"}]}
{"smiles": "Cc1ncn2c(=O)n(C)nnc12", "note": "[Compound 14, 3,8-dimethylimidazo[5,1-d][1,2,3,5]tetrazin-4(3H)-one]", "values": [{"measurement": "half-life", "setting": "[7]", "result": "> 20", "unit": "h"}, {"measurement": "effect on survival in intracranial model", "setting": "[2]; oral, 15 mg/kg TMZ or equimolar dose, 15 mg/kg", "result": "lack of in vivo efficacy"}, {"measurement": "activity relative to TMZ in MGMT-deficient cell lines", "setting": "[1]", "result": "as (or more) potent than TMZ"}, {"measurement": "anticancer activity in cell culture", "setting": "[1]", "result": "most active across all cell lines"}]}
{"smiles": "Cn1nnc2c(C(N)=O)ncn2c1=O", "note": "[TMZ, temozolomide, reference compound]", "values": [{"measurement": "myelosuppression / WBC toxicity", "setting": "[5]", "result": "white blood cell (WBC) depletion"}, {"measurement": "incidence of myelotoxicity", "setting": "[8]; TMZ-treated patients", "result": "~20", "unit": "%"}, {"measurement": "half-life", "setting": "[8]; in vivo, in humans (b7: also in aqueous solutions in vitro)", "result": "~2", "unit": "h"}, {"measurement": "stability to mouse liver microsomes", "setting": "[4]", "result": "insensitive to metabolic perturbation"}, {"measurement": "IC50", "setting": "[1]; GBM cell lines with negligible MGMT expression, read-out: IC50 in cell lines with negligible MGMT expression", "result": "≤ 50", "unit": "µM"}, {"measurement": "IC50", "setting": "[1]; GBM cell lines with significant MGMT expression, read-out: IC50 in cell lines with significant MGMT expression", "result": "> 300", "unit": "µM"}]}
